Results on 18 compounds are retold here after article PMC3855329, “A Fluorescence-Based Thermal Shift Assay Identifies Inhibitors of Mitogen Activated Protein Kinase Kinase 4” (PLoS ONE, 2013).

Read-outs that look alike come from different tables or passages of the source. Where only a bound is given, the exact number is not on record here.

The target of assay [1] is T1, MAP3K1 activated murine MAP2K4 (MAP2K4-AC) (Mus musculus, UniProt P47809).
T1 construct: purchased Millipore 14-377
T1 sequence (P47809 1-397): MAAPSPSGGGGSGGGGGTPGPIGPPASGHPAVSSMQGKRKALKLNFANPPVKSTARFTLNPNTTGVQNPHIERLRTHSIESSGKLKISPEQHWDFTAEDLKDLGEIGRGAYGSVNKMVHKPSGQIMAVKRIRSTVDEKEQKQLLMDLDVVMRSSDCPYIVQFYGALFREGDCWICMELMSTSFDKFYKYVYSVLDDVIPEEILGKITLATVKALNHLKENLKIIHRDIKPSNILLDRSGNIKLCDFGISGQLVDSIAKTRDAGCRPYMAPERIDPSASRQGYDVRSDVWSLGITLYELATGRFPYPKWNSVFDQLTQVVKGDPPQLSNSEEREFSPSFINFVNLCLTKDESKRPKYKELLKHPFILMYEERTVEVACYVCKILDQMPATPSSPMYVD
The assay is described as follows: In vitro MAP2K4 kinase assay, p38α MAPK (K53A) substrate, Western blot densitometry. It is filed as biochemical. Here is the method:
In addition to activated MAP2K4, the in vitro kinase assay used either kinase dead JNK1-K55M (Abcam # ab95248) or kinase dead p38α MAPK-K53A (generously provided by Dr. Martin Watterson, Northwestern) as the substrate, ATP (Cell Signaling) and kinase assay buffer (25 mM Tris-HCl (pH 7.5), 5 mM beta-glycerophosphate, 2 mM dithiothreitol (DTT), 0.1 mM Na3VO4, 10 mM MgCl2). […] Geraldol, 2′,4′-dihydroxychalcone and 3,2′-dihyrdoxy-4,4′,6′-trimethoxychalcone were purchased from Indofine Chemical Company. All other compounds were purchased from Sigma-Aldrich. To tubes containing 13 µl of 1.5X buffer on ice the assay reagents were added as indicated for a final reaction volume of 20 µL: 25 ng of MAP2K4-AC (stocks of 25 ng/uL were prepared and aliquoted from a 10 ug vial after the supplier concentration was verified using a Nanodrop 1000), inhibitors as denoted (from DMSO stock solutions), 1 µM final ATP, and 1 µg of JNK1 or p38 MAPK. […] All kinase assays were performed twice at separate times.
(§1) Twenty µl of reaction mixtures were separated by sodium dodecyl sulfate-polyacrylamide gel electrophoresis using precast 4–20% gradient gels (Biorad), per the manufacturers' instructions, and transferred onto 0.45 µm nitrocellulose membranes (Biorad). […] Bands were visualized with the aid of chemiluminescence reagents (GE Healthcare) after hybridization with a HRP conjugated rabbit secondary antibody (GE Healthcare). […] The bands were quantified using ImageJ software; normalized inhibitor-response data were plotted using Prism 6 to determine relative IC50 values.
In general terms: In western blotting, separated proteins are transferred to a membrane and probed.

In assay [2] the target is T2, human MAP2K4-EE (Homo sapiens, UniProt P45985, S257E/T261E).
T2 construct: Human MAP2K4-EE (residues 37–399); His tag (pMCSG7 vector, TEV-cleavable) (N); made in house; host or cells: E. coli KRX cells with pGro7 (GroEL/GroES)
T2 sequence (P45985 37-399 S257E/T261E): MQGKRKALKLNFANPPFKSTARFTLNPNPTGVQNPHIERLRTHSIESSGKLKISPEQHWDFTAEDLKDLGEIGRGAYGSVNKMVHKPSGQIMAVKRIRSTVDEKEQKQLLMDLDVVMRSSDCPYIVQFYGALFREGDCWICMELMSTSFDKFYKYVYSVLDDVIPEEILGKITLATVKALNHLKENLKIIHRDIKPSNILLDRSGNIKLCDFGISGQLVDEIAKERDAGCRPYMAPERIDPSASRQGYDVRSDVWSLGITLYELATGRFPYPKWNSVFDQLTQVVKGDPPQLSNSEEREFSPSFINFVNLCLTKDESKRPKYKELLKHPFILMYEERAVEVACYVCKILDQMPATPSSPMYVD
Nature of the assay: Fluorescence-based thermal shift (FTS) assay. To be noted: for ΔTm at 10 µM: 10 µM compound, mean ± SD. The format is binding. On the procedure: Small molecule screening by FTS assay was performed as described previously, [23] but with modifications, using an Echo550 (Labcyte) for compound transfer and a Mosquito (TTP Labtech) to dispense protein into 384 well PCR plates. Purified MAP2K4-EE was appropriately diluted in a buffer containing 100 mM Hepes, pH 7.5, 150 mM NaCl. […] The PCR plates were sealed with optical seal, shaken, and centrifuged after protein and compounds were added. […] Curve fitting, melting temperature calculation and report generation on the raw FTS data were performed using software developed by us. Initial screening with the 2000 compound Spectrum Collection was carried out in a pooled fashion. Specifically, 3 compounds were added at 10 µM concentration to each well and wells with positive Tm shift >2°C were then dissected to identify the responsible compound.

Assay [3] addresses T1, MAP3K1 activated murine MAP2K4 (MAP2K4-AC). The assay is described as follows: In vitro MAP2K4 kinase assay, JNK1 (K55M) substrate, Western blot densitometry. The format is biochemical. Here is the method:
In addition to activated MAP2K4, the in vitro kinase assay used either kinase dead JNK1-K55M (Abcam # ab95248) or kinase dead p38α MAPK-K53A (generously provided by Dr. Martin Watterson, Northwestern) as the substrate, ATP (Cell Signaling) and kinase assay buffer (25 mM Tris-HCl (pH 7.5), 5 mM beta-glycerophosphate, 2 mM dithiothreitol (DTT), 0.1 mM Na3VO4, 10 mM MgCl2). […] All other compounds were purchased from Sigma-Aldrich. To tubes containing 13 µl of 1.5X buffer on ice the assay reagents were added as indicated for a final reaction volume of 20 µL: 25 ng of MAP2K4-AC (stocks of 25 ng/uL were prepared and aliquoted from a 10 ug vial after the supplier concentration was verified using a Nanodrop 1000), inhibitors as denoted (from DMSO stock solutions), 1 µM final ATP, and 1 µg of JNK1 or p38 MAPK. […] All kinase assays were performed twice at separate times.
as §1

Assay [4] has as its target T2, human MAP2K4-EE. Nature of the assay: Fluorescence-based thermal shift (FTS) assay. It is filed as binding. To be noted: 1 mM ligand.
The next assay concerns human PCa cells. The arrangement: method as in PMID 18339885. To be noted: orthotopically implanted into mice; cited from earlier work.
In a further assay the test system is MMP-2 expression. The arrangement: method as in PMID 19638505. Particulars: prospective administration to humans; cited from earlier work.
Where [5] appears, read: kinase dead p38α MAPK-K53A substrate, 1 µM ATP, mean (95% confidence intervals), read-out: IC50-p38.
Where [6] appears, read: kinase dead JNK1-K55M substrate, 1 µM ATP, mean (95% confidence intervals), read-out: IC50-JNK1.

The term IC50 denotes the concentration needed to halve the response being measured. For orientation: ΔTm means the shift of the melting midpoint relative to a reference. Regarding `O=C(/C=C/c1ccccc1)c1ccc(O)cc1O` [2′,4′-dihydroxychalcone], the IC50 in assay [1] (setting [5]) was 16.9 µM. Further, the thermal shift (ΔTm) at 10 µM at human MAP2K4-EE [2] (n = 3, 10 µM) was 3.67±0.50 °C; at human MAP2K4-EE [2] (n = 3, read-out: ΔTm at 10 µM) it was 3.7 °C.
Taken in the same sequence, the figures for `O=c1c(O)c(-c2ccccc2)oc2cc(O)ccc12` [3,7-dihydroxyflavone] were 0.8 µM, 2.55±0.20 °C and 2.5 °C.
Turning to `Nc1ncnc2c1c(I)cn2[C@@H]1O[C@H](CO)[C@@H](O)[C@H]1O` [5-iodotubercidin], the IC50 in assay [3] (setting [6]) is 2.8 µM; in assay [1] (setting [5]), 0.2 µM. Moreover, the “ΔTm at 10 µM” value came to 4.29±0.07 °C on human MAP2K4-EE [2] (n = 3, 10 µM) and 4.3 °C on human MAP2K4-EE [2] (n = 3, read-out: ΔTm at 10 µM).
Take `COc1cc(/C=C(\C#N)C(N)=O)cc(CSc2nc3ccccc3s2)c1O` [AG825]: the concentration for half-maximal inhibition (IC50) in assay [3] (setting [6]) turned out to be 25 µM; in assay [1] (setting [5]) it was 28.5 µM. In addition, the shift in melting temperature (ΔTm) at 10 µM at human MAP2K4-EE [2] (n = 3, 10 µM) turned out to be 2.26±0.15 °C; at human MAP2K4-EE [2] (n = 3, read-out: ΔTm at 10 µM) it was 2.3 °C.
`Nc1ncnc2c1ncn2[C@@H]1O[C@H](COP(=O)(O)OP(=O)(O)NP(=O)(O)O)[C@@H](O)[C@H]1O` [AMP-PNP]: the “shift in Tm (ΔTm)” value on human MAP2K4-EE [4] was “highest ΔTm values”.
For the compound `Nc1ncnc2c1ncn2[C@@H]1O[C@H](COP(=O)(O)OP(=O)(O)OP(=O)(O)O)[C@@H](O)[C@H]1O` [ATP], at human MAP2K4-EE [4], the “shift in Tm (ΔTm)” value is over 10 °C.
In assay [1], `O=C1c2ccccc2C(=O)c2c1ccc(O)c2O` [Alizarin, 1,2-dihydroxyanthraquinone] gave a 50% inhibitory concentration (IC50) of 0.9 µM.
With `O=c1cc(-c2ccc(O)cc2)oc2cc(O)cc(O)c12` [Apigenin], the results for the concentration for half-maximal inhibition (IC50) in assay [3] (setting [6]) and in assay [1] (setting [5]) were 20.1 µM and 15.9 µM, respectively. For the same compound, the ΔTm at 10 µM at human MAP2K4-EE [2] (n = 3, read-out: ΔTm at 10 µM) is 2.8 ± 0.23 °C.
In the case of `O=c1cc(-c2ccccc2)oc2cc(O)cc(O)c12` [Chrysin, 5,7-dihydroxyflavone], in assay [1] (setting [5]), the half-maximal inhibitory concentration (IC50) worked out at 10.1 µM. Moreover, the thermal shift (ΔTm) at 10 µM stood at 1.78±0.42 °C at human MAP2K4-EE [2] (n = 3, 10 µM) and 1.8 °C on human MAP2K4-EE [2] (n = 3, read-out: ΔTm at 10 µM).
For the compound `O=c1c(-c2ccc(O)cc2)coc2cc(O)ccc12` [Daidzein], in assay [1] (concentrations of up to 200 µM, p38 MAPK (K53A) or JNK1 (K55M) substrates), the “inhibition of MAP2K4 activity” value is “does not inhibit”. Besides, at human MAP2K4-EE [2] (1, 10 and 25 µM), the “thermal stabilization of MAP2K4 (concentration dependent thermal shift)” value is recorded as “no such thermal stabilization effect”.
Consider `COc1cc(-c2oc3cc(O)ccc3c(=O)c2O)ccc1O` [Geraldol, 3,4′,7-Trihydroxy-3′-methoxyflavone], for which the 50% inhibitory concentration (IC50) in assay [1] is 0.8 µM.
Regarding `NCC(=O)O` [L-glycine], on human MAP2K4-EE [4], the “shift in Tm (ΔTm)” value is on record as “did not induce thermal stability”.
Consider `Cc1ccc(-c2nn(C(C)(C)C)c3ncnc(N)c23)cc1` [PP1], for which the results for the 50% inhibitory concentration (IC50) in assay [3] and in assay [1] were 16.9 µM and 13.8 µM, respectively. Also, the “ΔTm at 10 µM” value on human MAP2K4-EE [2] (n = 3, 10 µM) came to 2.55±0.03 °C; on human MAP2K4-EE [2] (n = 3, read-out: ΔTm at 10 µM), 2.5 °C.
Consider `CC(C)(C)n1nc(-c2ccc(Cl)cc2)c2c(N)ncnc21` [PP2], for which the IC50 in assay [3] worked out at 22.3 µM; in assay [1], 39.9 µM. Further, the “ΔTm at 10 µM” value at human MAP2K4-EE [2] (n = 3, 10 µM) came out at 2.33±0.04 °C; at human MAP2K4-EE [2] (n = 3, read-out: ΔTm at 10 µM) it was 2.3 °C.
For the compound `O=C(CCc1ccc(O)cc1)c1c(O)cc(O)cc1O` [Phloretin], the “ΔTm at 10 µM” value on human MAP2K4-EE [2] (n = 3, 10 µM) was 2.69±0.33 °C; on human MAP2K4-EE [2] (n = 3, read-out: ΔTm at 10 µM) it was 2.7 °C.
On to `O=c1c(O)c(-c2ccc(O)c(O)c2)oc2cc(O)cc(O)c12` [Quercetin], for which the IC50 stood at 1.7 µM in assay [3] (setting [6]) and 2 µM in assay [1] (setting [5]). Besides, the ΔTm at 10 µM at human MAP2K4-EE [2] (n = 3, read-out: ΔTm at 10 µM) is 2.75 ± 0.22 °C.
In the case of `O=C1c2ccccc2-c2n[nH]c3cccc1c23` [SP600125], the IC50 worked out at 0.7 µM in assay [3] (setting [6]) and 0.4 µM in assay [1] (setting [5]). Besides, the shift in melting temperature (ΔTm) at 10 µM on human MAP2K4-EE [2] (n = 3, 10 µM) is 6.4±0.06 °C; at human MAP2K4-EE [2] (n = 3, read-out: ΔTm at 10 µM) it was over 4 °C.
On to `O=c1c(-c2ccc(O)cc2)coc2cc(O)cc(O)c12` [genistein, 4,5,7-trihydroxyisoflavone], for which the “metastasis of human PCa cells” value in the assay with human PCa cells is reported as “inhibits the metastasis”. Also, the “MMP-2 expression in prostate tissue” value with MMP-2 expression is listed as “selectively decreases MMP-2 expression”.
